This assay addresses T1, IKK2 (Homo sapiens, UniProt O14920).
T1 construct: made in house; host or cells: insect cells (baculovirus, pFastBac; SF9)
T1 sequence (O14920 1-756): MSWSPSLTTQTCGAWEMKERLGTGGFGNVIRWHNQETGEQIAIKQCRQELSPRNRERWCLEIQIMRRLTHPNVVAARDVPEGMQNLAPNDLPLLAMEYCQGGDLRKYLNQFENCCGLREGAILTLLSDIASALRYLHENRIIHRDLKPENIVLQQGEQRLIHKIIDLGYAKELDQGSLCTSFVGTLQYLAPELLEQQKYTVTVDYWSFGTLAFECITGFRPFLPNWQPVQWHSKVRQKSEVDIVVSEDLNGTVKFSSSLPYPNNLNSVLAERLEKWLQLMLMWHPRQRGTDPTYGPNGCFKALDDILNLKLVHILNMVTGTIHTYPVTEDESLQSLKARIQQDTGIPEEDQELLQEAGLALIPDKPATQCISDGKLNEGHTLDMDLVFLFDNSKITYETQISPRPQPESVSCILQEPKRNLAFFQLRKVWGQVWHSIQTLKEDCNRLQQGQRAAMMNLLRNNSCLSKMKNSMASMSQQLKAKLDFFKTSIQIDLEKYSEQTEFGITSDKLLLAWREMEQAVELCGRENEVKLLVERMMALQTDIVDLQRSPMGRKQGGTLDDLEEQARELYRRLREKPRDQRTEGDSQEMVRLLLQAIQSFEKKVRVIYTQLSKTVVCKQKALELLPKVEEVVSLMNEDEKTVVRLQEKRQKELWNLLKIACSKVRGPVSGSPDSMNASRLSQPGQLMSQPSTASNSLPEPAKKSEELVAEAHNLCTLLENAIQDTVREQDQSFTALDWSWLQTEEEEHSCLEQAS
Nature of the assay: IKKβ Resin Enzyme Assay (IKK2 resin). In kind it is biochemical. In outline: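 Enzyme: human IKK2 with a C-terminal FLAG tag, baculovirus-expressed, purified as homodimer on anti-FLAG resin. It phosphorylates a biotinylated IκBα peptide with 1 μM ATP plus [γ-33P]ATP in 25 mM Hepes pH 7.6, Mg/Mn, for 30 min at 25° C. Incorporation is counted by scintillation after anion-exchange resin stop.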

[1] abbreviates: Table 6, read-out: IKK2 Resin IC 50.
[2] abbreviates: Table 2, read-out: IKK Resin IC50.
The mark [3] stands for this setting: Table 4, read-out: IKK2 Resin IC50.

Where a name gives a salt, the structure may show the parent alone. Read-outs that look alike come from different tables or passages of the source.

Turning to `NC(=O)c1nn(-c2ccc(F)cc2)c2c1CCc1ccc(NC(=O)c3cccc(N)c3Cl)cc1-2` [Example 229, 8-[(3-amino-2-chlorobenzoyl)amino]-1-(4-fluorophenyl)-4,5-dihydro-1H-benzo[g]indazole-3-carboxamide], the IC50 under setting [1] is ≤ 1000 nM.
As to `CS(=O)(=O)c1ccc(-n2nc(C(N)=O)c3c2-c2cc(NC(=O)c4ccc(N)cc4Cl)ccc2CC3)cc1` [Example 114, 8-[(4-amino-2-chlorobenzoyl)amino]-1-[4-(methylsulfonyl)phenyl]-4,5-dihydro-1H-benzo[g]indazole-3-carboxamide], the IC50 under setting [2] is ≤ 1000 nM.
For the molecule `Cc1ccc(C(=O)Nc2ccc3c(c2)-c2c(c(C(N)=O)nn2-c2ccc(F)cc2)CC3)c(Cl)n1` [Example 227, 8-{[(2-chloro-6-methylpyridin-3-yl)carbonyl]amino}-1-(4-fluorophenyl)-4,5-dihydro-1H-benzo[g]indazole-3-carboxamide], the IC50 under setting [1] was ≤ 1000 nM.
For `CC1(C)Cc2c(C(N)=O)nn(-c3ccc4c(c3)OCO4)c2-c2cc(NC(=O)c3cccnc3Cl)ccc21` [Example 434, 1-(1,3-benzodioxol-5-yl)-8-{[(2-chloropyridin-3-yl)carbonyl]amino}-5,5-dimethyl-4,5-dihydro-1H-benzo[g]indazole-3-carboxamide], the IC50 (Table 22, read-out: IKK2 Resin IC50) is ≤ 1000 nM.
In the case of `CS(=O)(=O)c1ccc(Cl)c(C(=O)Nc2ccc3c(c2)-c2c(c(C(N)=O)nn2-c2ccc4c(c2)OCO4)CC3)c1` [Example 185, 1-(1,3-benzodioxol-5-yl)-8-{[2-chloro-5-(methylsulfonyl)benzoyl]amino}-4,5-diliydro-1H-benzo[g]indazole-3-carboxamide], the IC50 under setting [3] was ≤ 1000 nM.
Regarding `NC(=O)c1nn(-c2ccc(F)cc2)c2c1CCc1ccc(NC(=O)c3ccc(N)cc3Cl)cc1-2` [Example 232, 8-[(4-amino-2-chlorobenzoyl)amino]-1-(4-fluorophenyl)-4,5-dihydro-1H-benzo[g]indazole-3-carboxamide], the IC50 under setting [1] was ≤ 1000 nM.
Regarding `NC(=O)c1nn(-c2cccc(O)c2)c2c1CCc1ccc(NC(=O)c3ccccc3Cl)cc1-2` [Example 262, 8-[(2-chlorobenzoyl)amino]-1-(3-hydroxyphenyl)-4,5-dihydro-1H-benzo[g]indazole-3-carboxamide], the IC50 (Table 8, read-out: IKK2 Resin IC50) was ≤ 1000 nM.
Take `COc1ccc([N+](=O)[O-])c(C(=O)Nc2ccc3c(c2)-c2c(c(C(N)=O)nn2-c2ccc(S(C)(=O)=O)cc2)CC3)c1` [Example 147, 8-[(5-methoxy-2-nitrobenzoyl)amino]-1-[4-(methylsulfonyl)phenyl]-4,5-dihydro-1H-benzo[g]indazole-3-carboxamide]: where the note is “Table 3, read-out: IKK Resin IC50”, the IC50 was ≤ 1000 nM.
As to `NC(=O)c1nn(-c2ccc3c(c2)OCO3)c2c1CCc1ccc(NC(=O)c3ccccc3[N+](=O)[O-])cc1-2` [Example 192, 1-(1,3-benzodioxol-5-yl)-8-[(2-nitrobenzoyl)amino]-4,5-dihydro-1H-benzo[g]indazole-3-carboxamide], the IC50 under setting [3] was ≤ 1000 nM.
As for `NC(=O)c1nn(-c2ccc(C#CCO)cc2)c2c1CCc1ccc(NC(=O)c3cccnc3Cl)cc1-2` [Example 386, 8-{[(2-chloropyridin-3-yl)carbonyl]amino}-1-[4-(3-hydroxyprop-1-ynyl)phenyl]-4,5-dihydro-1H-benzo[g]indazole-3-carboxamide], the IC50 (Table 17, read-out: IKK2 Resin IC50) is ≤ 1000 nM.
As to `CN(C)CC(=O)Nc1ccc(Cl)c(C(=O)Nc2ccc3c(c2)-c2c(c(C(N)=O)nn2-c2ccc(S(C)(=O)=O)cc2)CC3)c1` [Example 119, 8-({2-chloro-5-[(N,N-dimethylglycyl)amino]benzoyl}amino)-1-[4-(methylsulfonyl)phenyl]-4,5-dihydro-1H-benzo[g]indazole-3-carboxamidehydrochloride], the IC50 under setting [2] is ≤ 1000 nM.
Turning to `CS(=O)(=O)c1ccc(-n2nc(C(N)=O)c3c2-c2cc(NC(=O)c4cccnc4Cl)ccc2CC3)cc1` [Example 98, 8-{[(2-chloropyridin-3-yl)carbonyl]amino}-1-[4-(methylsulfonyl)phenyl]-4,5-dihydro-1H-benzo[g]indazole-3-carboxamide], under setting [2], the IC50 was ≤ 1000 nM.
